Assay results reported in patent publication US12421191B2, “3-hydroxyoxindole derivatives as CRHR2 antagonist” (RaQualia Pharma Inc., priority 2020, dated 2025).

Target: T1, human CRHR2-alpha (Homo sapiens, UniProt Q13324)
T1 construct: host or cells: CHO-K1
T1 sequence (Q13324 1-411): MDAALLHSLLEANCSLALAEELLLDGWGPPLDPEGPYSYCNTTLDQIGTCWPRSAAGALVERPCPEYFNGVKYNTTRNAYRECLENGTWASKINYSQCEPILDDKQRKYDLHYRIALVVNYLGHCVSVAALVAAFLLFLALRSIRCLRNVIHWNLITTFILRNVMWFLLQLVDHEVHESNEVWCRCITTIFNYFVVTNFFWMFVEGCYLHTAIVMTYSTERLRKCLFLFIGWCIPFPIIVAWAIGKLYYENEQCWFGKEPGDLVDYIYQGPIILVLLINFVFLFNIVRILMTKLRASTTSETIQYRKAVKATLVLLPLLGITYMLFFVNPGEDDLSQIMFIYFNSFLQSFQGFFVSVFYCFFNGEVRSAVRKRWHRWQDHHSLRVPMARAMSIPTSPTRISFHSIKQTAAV
Test: cAMP functional assay for human CRHR2 (LANCE Ultra TR-FRET)
Assay type: cell-based
Conditions: inhibition of cAMP production in CHO-K1 cells stably expressing human CRHR2-alpha, EC90 of human urocortin2 as agonist; read-out: IC50 against CRHR2
Description: cAMP functional assay for human CRHR2 The ability of the compounds of this invention to inhibit either CRHR2 is assessed by 3′,5′-cyclic adenosine monophosphate (cAMP) production in cells using the LANCE Ultra cAMP assay kit (ParkinElmer), which are designed based on the homogeneous time-resolved fluorescence resonance energy transfer (TR-FRET) immunoassay.
CHO-K1 (Chinese hamster ovary) cells stably expressing human CRHR2-alpha (DiscoveRX, Cat. 95-0048C2) are grown in HAM's F12 media supplemented with 10% fetal bovine serum (FBS), 100 units/mL penicillin G, 100 microg/mL hygromycin and 0.5 microg/mL geneticin at 37° C. in 5% CO2 humidified incubator to 80% confluence. After 7 hours starvation treatment in culture media containing 0.1% FBS, the cells are washed with Hanks balanced salt solution (HBSS) and cryopreserved.
For cAMP assay, frozen cells are thawed and washed with HBSS, followed by resuspending cells in assay buffer (HBSS containing 0.1% bovine serum albumin, 0.5 mM isobutylmethylxanthine and 5 mM Hepes, pH 7.4) at the appropriate concentration for the assay. The cell suspensions are plated on 384-well microplates (Greiner Bio-One) at a density of 4,000 cells per well. After preincubating the cells with various concentrations of the compounds for 30 min at 25° C., an assay buffer containing EC90 concentration of agonist is added and the cells are incubated for 30 min at 25° C. Human urocortin2 (Peptide Institute) is used as agonists for CRHR2. For the termination of assay, europium-labeled cAMP tracer and ULight (registered trademark) dye labeled cAMP antibodies, both prepared with Lance-Ultra cAMP detection reagent (PerkinElmer) are added in the plate and incubate for 60 min at 25° C. After incubation, TR-FRET signal is detected by EnVision plate reader (PerkinElmer). The IC50 values for compounds are calculated from dose-response curves by fitting the percent inhibition using XLfit (ID Business Solutions).

| Structure (SMILES) | IC50 |
| --- | --- |
| O=C(N[C@H]1CC[C@H](CN2C(=O)C(O)(c3ccccc3F)c3cccc(F)c32)CC1)c1cc(Cl)cnc1C(F)F (mixture of isomers) [Example 82, 5-chloro-2-(difluoromethyl)-N-((1r,4r)-4-((7-fluoro-3-(2-fluorophenyl)-3-hydroxy-2-oxoindolin-1-yl)methyl)cyclohexyl) nicotinamide] | < 200 nM |
| COc1ccc(C2(O)C(=O)N(C[C@H]3CC[C@H](NC(=O)c4cc(Cl)cnc4C(F)F)CC3)c3ccccc32)cc1 (some centres unmarked) [Example 2, 5-chloro-2-(difluoromethyl)-N-((1r,4r)-4-((3-hydroxy-3-(4-methoxyphenyl)-2-oxoindolin-1-yl)methyl)cyclohexyl) nicotinamide] | < 200 nM |
| O=C(N[C@H]1CC[C@H](CN2C(=O)C(O)(c3ccccc3)c3ccccc32)CC1)c1cc(Cl)cnc1C(F)F (some centres unmarked) [Example 3, 5-chloro-2-(difluoromethyl)-N-((1r,4r)-4-((3-hydroxy-2-oxo-3-phenylindolin-1-yl)methyl)cyclohexyl) nicotinamide] | < 200 nM |
| O=C(N[C@H]1CC[C@H](CN2C(=O)C(O)(c3ccncc3F)c3ccccc32)CC1)c1cc(Cl)cnc1C(F)F (some centres unmarked) [Example 10, 5-chloro-2-(difluoromethyl)-N-((1r,4r)-4-((3-(3-fluoropyridin-4-yl)-3-hydroxy-2-oxoindolin-1-yl)methyl)cyclohexyl) nicotinamide] | < 200 nM |
| O=C(N[C@H]1CC[C@H](CN2C(=O)C(O)(c3ccc(Cl)cn3)c3ccccc32)CC1)c1cc(Cl)cnc1C(F)F (some centres unmarked) [Example 13, 5-chloro-N-((1r,4r)-4-((3-(5-chloropyridin-2-yl)-3-hydroxy-2-oxoindolin-1-yl)methyl)cyclohexyl)-2-(difluoromethyl)nicotinamide] | < 200 nM |
| O=C(N[C@H]1CC[C@H](CN2C(=O)C(O)(c3ccc(F)cc3)c3ccccc32)CC1)c1cc(Cl)cnc1C(F)F (some centres unmarked) [Example 17, 5-chloro-2-(difluoromethyl)-N-((1r,4r)-4-((3-(4-fluorophenyl)-3-hydroxy-2-oxoindolin-1-yl)methyl)cyclohexyl) nicotinamide] | < 200 nM |
| O=C(N[C@H]1CC[C@H](CN2C(=O)C(O)(c3ccc(F)cn3)c3ccccc32)CC1)c1cc(Cl)cnc1C(F)F (some centres unmarked) [Example 18, 5-chloro-2-(difluoromethyl)-N-((1r,4r)-4-((3-(5-fluoropyridin-2-yl)-3-hydroxy-2-oxoindolin-1-yl)methyl)cyclohexyl) nicotinamide] | < 200 nM |
| O=C(N[C@H]1CC[C@H](CN2C(=O)C(O)(c3cccc(F)c3)c3ccccc32)CC1)c1cc(Cl)cnc1C(F)F (some centres unmarked) [Example 20, 5-chloro-2-(difluoromethyl)-N-((1r,4r)-4-((3-(3-fluorophenyl)-3-hydroxy-2-oxoindolin-1-yl)methyl)cyclohexyl) nicotinamide] | < 200 nM |
| COc1cc(C2(O)C(=O)N(C[C@H]3CC[C@H](NC(=O)c4cc(Cl)cnc4C(F)F)CC3)c3ccccc32)c(F)cn1 (some centres unmarked) [Example 27, 5-chloro-2-(difluoromethyl)-N-((1r,4r)-4-((3-(5-fluoro-2-methoxypyridin-4-yl)-3-hydroxy-2-oxoindolin-1-yl)methyl)cyclohexyl) nicotinamide] | < 200 nM |
| O=C(N[C@H]1CC[C@H](CN2C(=O)C(O)(c3ccccc3)c3ccc(Cl)cc32)CC1)c1cc(Cl)cnc1C(F)F (some centres unmarked) [Example 30, 5-chloro-N-((1r,4r)-4-((6-chloro-3-hydroxy-2-oxo-3-phenylindolin-1-yl)methyl)cyclohexyl)-2-(difluoromethyl)nicotinamide] | < 200 nM |
| O=C(N[C@H]1CC[C@H](CN2C(=O)C(O)(c3ccccc3F)c3ccccc32)CC1)c1cc(Cl)cnc1C(F)F (some centres unmarked) [Example 33, 5-chloro-2-(difluoromethyl)-N-((1r,4r)-4-((3-(2-fluorophenyl)-3-hydroxy-2-oxoindolin-1-yl)methyl)cyclohexyl) nicotinamide] | < 200 nM |
| O=C(N[C@H]1CC[C@H](CN2C(=O)C(O)(c3cccc(F)c3F)c3ccccc32)CC1)c1cc(Cl)cnc1C(F)F (some centres unmarked) [Example 40, 5-chloro-2-(difluoromethyl)-N-((1r,4r)-4-((3-(2,3-difluorophenyl)-3-hydroxy-2-oxoindolin-1-yl)methyl)cyclohexyl) nicotinamide] | < 200 nM |
| COc1cccc(C2(O)C(=O)N(C[C@H]3CC[C@H](NC(=O)c4cc(Cl)cnc4C(F)F)CC3)c3ccccc32)c1 (some centres unmarked) [Example 47, 5-chloro-2-(difluoromethyl)-N-((1r,4r)-4-((3-hydroxy-3-(3-methoxyphenyl)-2-oxoindolin-1-yl)methyl)cyclohexyl) nicotinamide] | < 200 nM |
| O=C(N[C@H]1CC[C@H](CN2C(=O)C(O)(c3cccc(Cl)c3)c3ccccc32)CC1)c1cc(Cl)cnc1C(F)F (some centres unmarked) [Example 48, 5-chloro-N-((1r,4r)-4-((3-(3-chlorophenyl)-3-hydroxy-2-oxoindolin-1-yl)methyl)cyclohexyl)-2-(difluoromethyl)nicotinamide] | < 200 nM |
| Cc1cccc(C2(O)C(=O)N(C[C@H]3CC[C@H](NC(=O)c4cc(Cl)cnc4C(F)F)CC3)c3ccccc32)c1 (some centres unmarked) [Example 49, 5-chloro-2-(difluoromethyl)-N-((1r,4r)-4-((3-hydroxy-2-oxo-3-(m-tolyl)indolin-1-yl)methyl)cyclohexyl) nicotinamide] | < 200 nM |
| O=C(N[C@H]1CC[C@H](CN2C(=O)C(O)(c3ccc(F)cc3F)c3ccccc32)CC1)c1cc(Cl)cnc1C(F)F (some centres unmarked) [Example 53, 5-chloro-2-(difluoromethyl)-N-((1r,4r)-4-((3-(2,4-difluorophenyl)-3-hydroxy-2-oxoindolin-1-yl)methyl)cyclohexyl) nicotinamide] | < 200 nM |
| COc1ccc(C2(O)C(=O)N(C[C@H]3CC[C@H](NC(=O)c4cc(Cl)cnc4C(F)F)CC3)c3ccccc32)c(F)c1 (some centres unmarked) [Example 54, 5-chloro-2-(difluoromethyl)-N-((1r,4r)-4-((3-(2-fluoro-4-methoxyphenyl)-3-hydroxy-2-oxoindolin-1-yl)methyl)cyclohexyl) nicotinamide] | < 200 nM |
| Cc1ccc(C2(O)C(=O)N(C[C@H]3CC[C@H](NC(=O)c4cc(Cl)cnc4C(F)F)CC3)c3ccccc32)cc1 (some centres unmarked) [Example 56, 5-chloro-2-(difluoromethyl)-N-((1r,4r)-4-((3-hydroxy-2-oxo-3-(p-tolyl)indolin-1-yl)methyl)cyclohexyl) nicotinamide] | < 200 nM |
| O=C(N[C@H]1CC[C@H](CN2C(=O)C(O)(c3cc(F)ccc3F)c3ccccc32)CC1)c1cc(Cl)cnc1C(F)F (some centres unmarked) [Example 58, 5-chloro-2-(difluoromethyl)-N-((1r,4r)-4-((3-(2,5-difluorophenyl)-3-hydroxy-2-oxoindolin-1-yl)methyl)cyclohexyl) nicotinamide] | < 200 nM |
| N#Cc1ccc(F)c(C2(O)C(=O)N(C[C@H]3CC[C@H](NC(=O)c4cc(Cl)cnc4C(F)F)CC3)c3ccccc32)c1 (some centres unmarked) [Example 59, 5-chloro-N-((1r,4r)-4-((3-(5-cyano-2-fluorophenyl)-3-hydroxy-2-oxoindolin-1-yl)methyl)cyclohexyl)-2-(difluoromethyl)nicotinamide] | < 200 nM |
| Cc1cccc(C2(O)C(=O)N(C[C@H]3CC[C@H](NC(=O)c4cc(Cl)cnc4C(F)F)CC3)c3ccccc32)c1F (some centres unmarked) [Example 63, 5-chloro-2-(difluoromethyl)-N-((1r,4r)-4-((3-(2-fluoro-3-methylphenyl)-3-hydroxy-2-oxoindolin-1-yl)methyl)cyclohexyl) nicotinamide] | < 200 nM |
| COc1cccc(C2(O)C(=O)N(C[C@H]3CC[C@H](NC(=O)c4cc(Cl)cnc4C(F)F)CC3)c3ccccc32)c1F (some centres unmarked) [Example 66, 5-chloro-2-(difluoromethyl)-N-((1r,4r)-4-((3-(2-fluoro-3-methoxyphenyl)-3-hydroxy-2-oxoindolin-1-yl)methyl)cyclohexyl) nicotinamide] | < 200 nM |
| O=C(N[C@H]1CC[C@H](CN2C(=O)C(O)(c3cccc(Cl)c3F)c3ccccc32)CC1)c1cc(Cl)cnc1C(F)F (some centres unmarked) [Example 67, 5-chloro-N-((1r,4r)-4-((3-(3-chloro-2-fluorophenyl)-3-hydroxy-2-oxoindolin-1-yl)methyl)cyclohexyl)-2-(difluoromethyl)nicotinamide] | < 200 nM |
